According to the NIST ThermoML archive (doi:10.1021/je700350b):

Assay: xn = mol fraction of the nth substance listed
Details: for surface tension liquid-gas: Ring tensiometer; for binary diffusion coefficient: 101 kPa, Taylor dispersion method; for binary diffusion coefficient / viscosity: Liquid; for viscosity: 101.33 kPa

CCN(CC)CCO [(diethylamino)ethanol] + O
Details	binary diffusion coefficient [m2/s]	surface tension liquid-gas [mN/m]	viscosity [mPa·s]
283.15 K, x1 = 0.00104	–	62.91	–
283.15 K, x1 = 0.00111	–	62.83	–
283.15 K, x1 = 0.0013	–	62.32	–
283.15 K, x1 = 0.00336	–	55.32	–
283.15 K, x1 = 0.00503	–	54.03	–
283.15 K, x1 = 0.00679	–	50.98	–
283.15 K, x1 = 0.02372	–	43.65	–
283.15 K, x1 = 0.03998	–	39.05	–
283.15 K, x1 = 0.06011	–	37.17	–
283.15 K, x1 = 0.07276	–	36.26	–
283.15 K, x1 = 0.1253	–	34.78	–
283.15 K, x1 = 0.1749	–	33.38	–
283.15 K, x1 = 0.2503	–	32.74	–
283.15 K, x1 = 0.3515	–	31.85	–
283.15 K, x1 = 0.4018	–	31.32	–
283.15 K, x1 = 0.5038	–	31.02	–
283.15 K, x1 = 0.608	–	30.63	–
283.15 K, x1 = 0.712	–	30.36	–
283.15 K, x1 = 0.7503	–	30.08	–
283.15 K, x1 = 0.8542	–	29.69	–
283.15 K, x1 = 1	–	28.79	–
288.15 K, x1 = 0.00104	–	62.06	–
288.15 K, x1 = 0.00111	–	61.98	–
288.15 K, x1 = 0.0013	–	61.47	–
288.15 K, x1 = 0.00336	–	54.27	–
288.15 K, x1 = 0.00503	–	53.11	–
288.15 K, x1 = 0.00679	–	49.93	–
288.15 K, x1 = 0.02372	–	42.61	–
288.15 K, x1 = 0.03998	–	38.43	–
288.15 K, x1 = 0.06011	–	36.56	–
288.15 K, x1 = 0.07276	–	35.84	–
288.15 K, x1 = 0.1253	–	34.38	–
288.15 K, x1 = 0.1749	–	32.58	–
288.15 K, x1 = 0.2503	–	32.22	–
288.15 K, x1 = 0.3515	–	31.24	–
288.15 K, x1 = 0.4018	–	30.72	–
288.15 K, x1 = 0.5038	–	30.62	–
288.15 K, x1 = 0.608	–	30.23	–
288.15 K, x1 = 0.712	–	29.96	–
288.15 K, x1 = 0.7503	–	29.69	–
288.15 K, x1 = 0.8542	–	29.3	–
288.15 K, x1 = 1	–	28.39	–
293.15 K, x1 = 0.00104	–	61.43	–
293.15 K, x1 = 0.00111	–	61.34	–
293.15 K, x1 = 0.0013	–	60.62	–
293.15 K, x1 = 0.00336	–	53.43	–
293.15 K, x1 = 0.00503	–	52.35	–
293.15 K, x1 = 0.00679	–	48.58	–
293.15 K, x1 = 0.02372	–	41.89	–
293.15 K, x1 = 0.03998	–	37.6	–
293.15 K, x1 = 0.06011	–	36	–
293.15 K, x1 = 0.07276	–	35.06	–
293.15 K, x1 = 0.1253	–	33.88	–
293.15 K, x1 = 0.1749	–	32.18	–
293.15 K, x1 = 0.2503	–	31.82	–
293.15 K, x1 = 0.3515	–	30.73	–
293.15 K, x1 = 0.4018	–	30.23	–
293.15 K, x1 = 0.5038	–	30.22	–
293.15 K, x1 = 0.608	–	29.73	–
293.15 K, x1 = 0.712	–	29.66	–
293.15 K, x1 = 0.7503	–	29.29	–
293.15 K, x1 = 0.8542	–	28.8	–
293.15 K, x1 = 1	–	27.99	–
298.15 K, x1 = 0.00104	–	60.8	–
298.15 K, x1 = 0.00111	–	60.7	–
298.15 K, x1 = 0.0013	–	59.88	–
298.15 K, x1 = 0.00336	–	52.59	–
298.15 K, x1 = 0.00427	6.17e-10	–	–
298.15 K, x1 = 0.00503	–	51.41	–
298.15 K, x1 = 0.00679	–	47.43	–
298.15 K, x1 = 0.01005	–	–	1.201
298.15 K, x1 = 0.01425	4.95e-10	–	–
298.15 K, x1 = 0.02016	–	–	1.536
298.15 K, x1 = 0.02372	–	40.85	–
298.15 K, x1 = 0.03	–	–	1.949
298.15 K, x1 = 0.03523	2.95e-10	–	–
298.15 K, x1 = 0.03998	–	36.88	–
298.15 K, x1 = 0.04005	–	–	2.421
298.15 K, x1 = 0.05087	2.23e-10	–	–
298.15 K, x1 = 0.05118	2.22e-10	–	–
298.15 K, x1 = 0.05946	–	–	3.473
298.15 K, x1 = 0.06011	–	35.23	–
298.15 K, x1 = 0.06152	–	–	3.51
298.15 K, x1 = 0.07013	1.58e-10	–	–
298.15 K, x1 = 0.07026	–	–	4.128
298.15 K, x1 = 0.07276	–	34.59	–
298.15 K, x1 = 0.08762	–	–	5.181
298.15 K, x1 = 0.09008	–	–	5.347
298.15 K, x1 = 0.09711	1.32e-10	–	–
298.15 K, x1 = 0.1004	1.26e-10	–	–
298.15 K, x1 = 0.11	–	–	6.615
298.15 K, x1 = 0.12	–	–	7.243
298.15 K, x1 = 0.1253	–	33.18	–
298.15 K, x1 = 0.1301	–	–	7.863
298.15 K, x1 = 0.1401	–	–	8.511
298.15 K, x1 = 0.1467	1.07e-10	–	–
298.15 K, x1 = 0.1483	–	–	8.96
298.15 K, x1 = 0.1603	–	–	9.677
298.15 K, x1 = 0.1704	–	–	10.26
298.15 K, x1 = 0.1749	–	31.58	–
298.15 K, x1 = 0.1905	–	–	11.31
298.15 K, x1 = 0.2004	–	–	11.76
298.15 K, x1 = 0.2104	–	–	12.22
298.15 K, x1 = 0.22	–	–	12.66
298.15 K, x1 = 0.2301	–	–	13.04
298.15 K, x1 = 0.2401	–	–	13.42
298.15 K, x1 = 0.2503	–	31.21	–
298.15 K, x1 = 0.253	–	–	13.84
298.15 K, x1 = 0.2674	–	–	14.24
298.15 K, x1 = 0.2701	–	–	14.25
298.15 K, x1 = 0.2801	–	–	14.55
298.15 K, x1 = 0.29	–	–	14.76
298.15 K, x1 = 0.3022	–	–	14.98
298.15 K, x1 = 0.35	–	–	15.43
298.15 K, x1 = 0.3515	–	30.22	–
298.15 K, x1 = 0.3999	–	–	14.98
298.15 K, x1 = 0.4018	–	29.73	–
298.15 K, x1 = 0.4507	–	–	14.58
298.15 K, x1 = 0.5001	–	–	13.45
298.15 K, x1 = 0.5038	–	29.72	–
298.15 K, x1 = 0.5504	–	–	12.29
298.15 K, x1 = 0.6001	–	–	10.96
298.15 K, x1 = 0.608	–	29.23	–
298.15 K, x1 = 0.6514	–	–	9.672
298.15 K, x1 = 0.7	–	–	8.576
298.15 K, x1 = 0.712	–	29.15	–
298.15 K, x1 = 0.7503	–	28.8	–
298.15 K, x1 = 0.7508	–	–	7.471
298.15 K, x1 = 0.8001	–	–	6.597
298.15 K, x1 = 0.8508	–	–	5.743
298.15 K, x1 = 0.8542	–	28.41	–
298.15 K, x1 = 0.9001	–	–	5.063
298.15 K, x1 = 0.9501	–	–	4.494
298.15 K, x1 = 1	–	27.6	4.01
303.15 K, x1 = 0.00104	–	60.06	–
303.15 K, x1 = 0.00111	–	59.95	–
303.15 K, x1 = 0.0013	–	59.24	–
303.15 K, x1 = 0.00278	7.11e-10	–	–
303.15 K, x1 = 0.00336	–	51.86	–
303.15 K, x1 = 0.00503	–	50.47	–
303.15 K, x1 = 0.00524	6.5e-10	–	–
303.15 K, x1 = 0.00679	–	46.5	–
303.15 K, x1 = 0.00781	6.39e-10	–	–
303.15 K, x1 = 0.01005	–	–	1.062
303.15 K, x1 = 0.01032	5.82e-10	–	–
303.15 K, x1 = 0.01281	5.63e-10	–	–
303.15 K, x1 = 0.01536	5.39e-10	–	–
303.15 K, x1 = 0.01779	4.82e-10	–	–
303.15 K, x1 = 0.02016	–	–	1.333
303.15 K, x1 = 0.02026	4.54e-10	–	–
303.15 K, x1 = 0.02372	–	39.92	–
303.15 K, x1 = 0.02731	4.06e-10	–	–
303.15 K, x1 = 0.0382	3.14e-10	–	–
303.15 K, x1 = 0.03976	–	–	2.025
303.15 K, x1 = 0.03998	–	35.96	–
303.15 K, x1 = 0.05015	–	–	2.464
303.15 K, x1 = 0.05024	2.55e-10	–	–
303.15 K, x1 = 0.06011	–	34.47	–
303.15 K, x1 = 0.06028	–	–	2.899
303.15 K, x1 = 0.07004	–	–	3.354
303.15 K, x1 = 0.07276	–	33.87	–
303.15 K, x1 = 0.07362	1.77e-10	–	–
303.15 K, x1 = 0.08051	–	–	3.86
303.15 K, x1 = 0.08982	–	–	4.289
303.15 K, x1 = 0.09846	1.53e-10	–	–
303.15 K, x1 = 0.11	–	–	5.269
303.15 K, x1 = 0.12	–	–	5.728
303.15 K, x1 = 0.1247	1.37e-10	–	–
303.15 K, x1 = 0.1253	–	32.48	–
303.15 K, x1 = 0.1301	–	–	6.216
303.15 K, x1 = 0.1401	–	–	6.673
303.15 K, x1 = 0.1476	1.29e-10	–	–
303.15 K, x1 = 0.1511	–	–	7.151
303.15 K, x1 = 0.1603	–	–	7.537
303.15 K, x1 = 0.1704	–	–	7.965
303.15 K, x1 = 0.1749	–	30.78	–
303.15 K, x1 = 0.1801	1.32e-10	–	–
303.15 K, x1 = 0.1897	–	–	8.687
303.15 K, x1 = 0.1998	–	–	9.003
303.15 K, x1 = 0.2104	–	–	9.393
303.15 K, x1 = 0.22	–	–	9.709
303.15 K, x1 = 0.2301	–	–	9.979
303.15 K, x1 = 0.2401	–	–	10.26
303.15 K, x1 = 0.2498	–	–	10.48
303.15 K, x1 = 0.2503	–	30.81	–
303.15 K, x1 = 0.2674	–	–	10.84
303.15 K, x1 = 0.2701	–	–	10.86
303.15 K, x1 = 0.2801	–	–	11.05
303.15 K, x1 = 0.29	–	–	11.21
303.15 K, x1 = 0.3003	–	–	11.25
303.15 K, x1 = 0.35	–	–	11.5
303.15 K, x1 = 0.3515	–	29.72	–
303.15 K, x1 = 0.3997	–	–	11.47
303.15 K, x1 = 0.4018	–	29.34	–
303.15 K, x1 = 0.433	–	–	11.12
303.15 K, x1 = 0.4995	–	–	10.24
303.15 K, x1 = 0.5038	–	29.22	–
303.15 K, x1 = 0.5498	–	–	9.382
303.15 K, x1 = 0.5997	–	–	8.485
303.15 K, x1 = 0.608	–	28.83	–
303.15 K, x1 = 0.6499	–	–	7.581
303.15 K, x1 = 0.7001	–	–	6.746
303.15 K, x1 = 0.712	–	28.65	–
303.15 K, x1 = 0.7498	–	–	5.97
303.15 K, x1 = 0.7503	–	28.3	–
303.15 K, x1 = 0.8	–	–	5.299
303.15 K, x1 = 0.8499	–	–	4.701
303.15 K, x1 = 0.8542	–	27.91	–
303.15 K, x1 = 0.9	–	–	4.196
303.15 K, x1 = 0.95	–	–	3.742
303.15 K, x1 = 1	–	27.2	3.375
